Where “and” joins values, the source holds several entries; their conditions need not be identical. Equal values may be shown once. Read-outs that look alike come from different tables or passages of the source.
Tests used:
α4β3δ GABAARs = system: T1, α4β3δ GABAARs; experiment: Single-channel recording of spontaneous currents, outside-out patches of HEK cells; format: cell-based, mouse; settings: 100 μM PTX, absence of GABA
T1 construct: expressed in transfected cells; host or cells: HEK cells (outside-out patches)
Experimental: To limit ion channel density in individual patches, HEK cells were transfected with 5 ng α4, β3, δ and eGFP cDNAs. Resulting spontaneous single-channel currents were digitised at a sampling rate of 20 kHz and filtered at 5 kHz with a 4-pole Bessel filter (24 dB per octave). A fixed time resolution of 80 μs was used as a preset. Recordings were undertaken using thick-walled borosilicate patch pipettes (6–10 MΩ) filled with a solution containing (mM): 145 CsCl, 2.5 NaCl, 10 HEPES, 1 EGTA, 4 MgATP, pH 7.3. Osmolarity was 300 ± 20 mOsm/L. Cells were perfused with an external solution consisting of (mM): 145 NaCl, 2.5 KCl, 1 CaCl2, 1 MgCl2, 10 HEPES, 10 glucose, pH 7.3. Prior control recordings were obtained using untransfected HEK cells to identify endogenous channel currents.
Channel currents were digitally low pass filtered at 1–2 kHz prior to analysis. […] Channel dwell states were identified using a threshold cursor method. This state transition detection method for open and shut events was used to assemble an idealised record of the digitised data. Open times affected by channel stacking were not included in the analyses and sub-conductance states were also rare and excluded from the analysis.
The analysis of the dwell times for single-channel currents was performed by fitting a mixture of exponential components to the open time distributions. These defined the mean open times and their relative proportions (area of the components) based on using a Levenberg-Marquardt non-linear least-squares routine (WinEDR ver 3.8.7, courtesy of J Dempster, University of Strathclyde).

[1] = system: dentate gyrus granule cells (DGGCs); experiment: Tonic current in acute hippocampal brain slices; format: cell-based, rat; settings: for Change in holding current: DGGCs;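 for tonic current change with +PTX, Fig. 10a: Holding current density change on antagonist application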;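 for tonic current change with Gabazine, Fig. 10a: Holding current density change on antagonist application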
Text: (§1) Adolescent male rats (P21–P28) were anaesthetised by inhalation with 5% isoflurane before dispatch and isolation of the brain in accordance with the United Kingdom Animals (Scientific Procedures) Act 1986. The brain was immersed in an ice-cold slicing solution containing (mM): 85 NaCl, 2.5 KCl, 1.25 NaH2PO4, 26 NaHCO3, 75 sucrose, 1 CaCl2, 4 MgCl2, 25 glucose and 2 kynurenic acid, (pH 7.4 when bubbled with 95% O2/5% CO2). Horizontal (hippocampal) and coronal (thalamic) sections (all 350 µm thick) were cut using a Leica VT1200S vibratome before transfer to a holding chamber at 37 °C. The solution was slowly exchanged over 1 h with aCSF containing (mM): 125 NaCl, 2.5 KCl, 1.25 NaH2PO4, 26 NaHCO3, 2 CaCl2, 1 MgCl2, 25 glucose and 2 kynurenic acid (pH 7.4 when bubbled with 95% O2/5% CO2) before maintaining the slices at room temperature prior to recording.
(§2) Currents were acquired with Clampex ver.
(§3) Recordings from hippocampal cultures used ~3–5 MΩ electrodes filled with an internal solution consisting of (mM): 140 CsCl, 2 NaCl, 10 HEPES, 5 EGTA, 2 MgCl2, 0.5 CaCl2, 2 Na2ATP, 0.5 Na2GTP, 2 QX-314, pH 7.3. Osmolarity was 300 ± 20 mOsm/L. Cells were perfused in the same Kreb’s solution described above, except for the addition of 2 mM kynurenic acid. Cells were voltage clamped at −60 mV. For current clamp, cells were recorded using an internal electrode solution consisting of (mM): 137 potassium gluconate, 3 KCl, 10 HEPES, 5 EGTA, 0.5 CaCl2, 2 MgCl2, 2 Na2ATP and 0.5 Na2GTP, pH 7.3. Osmolarity was 300 ± 20 mOsm/L. The external solution was as described for voltage-clamp experiments and the calculated junction potential was ~15 mV. Current was injected to hold cells at −70 mV if required. For slice recordings, slices were perfused in the aCSF described above, and the internal solution was the same as that used for cultured neuronal voltage-clamp recordings.

[2] = system: dorsal lateral geniculate nucleus (dLGN) thalamic relay neurons; experiment: Tonic current in acute thalamic brain slices; format: cell-based, rat;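 for tonic current change with +PTX, Fig. 10b: Holding current density change on antagonist application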;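 for tonic current change with Gabazine, Fig. 10b: Holding current density change on antagonist application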
Text: as §1, §2, §3

α4β3δ receptors [3] = format: cell-based, mouse; set-up: spontaneous activity, Supp. Fig. 3e: unit not given here; settings: for Ispont during staurosporine application: 200 nM staurosporine
Text: (§4) All components were obtained from Life Technologies.
as §2
(§5) Cells were voltage clamped at −40 mV.
(§6) For assessment of the efficacy of allosteric modulators on spontaneous activity, compounds were briefly applied (3–5 s) to achieve steady-state currents (IMod). […] The IMod was summed with IPTX (or subtracted for inhibitory modulators) and the Ispont calculated, as described by Eq. (2):2 Ispont(%)=[(IPTX+IMod)/(IPTX+IMax)]×100……………………………………

[4] = system: cultured hippocampal neurons; experiment: Voltage clamp of spontaneous/tonic GABAAR currents in transfected cultured hippocampal neurons; format: cell-based, rat; settings: for spontaneous/tonic current, Supp. Fig. 4e: concanamycin treated (vs control), individual cells; for Effect on holding current: gabazine 1 μM
Experimental: This media was replaced 2 h later with neurobasal-A media supplemented with 1% v/v B-27, 50 units/ml penicillin-G, 50 µg/ml streptomycin, 0.5% v/v glutamax and 35 mM glucose. These cells were transfected 6–8 days later using either the calcium phosphate protocol described above, or Effectene with a protocol as described by the manufacturer (Qiagen) using a total 0.8 μg of cDNA per coverslip. […] Neurons were used for electrophysiological recording or confocal imaging 5–9 days later.
as §2, §3

[5] = system: T2, α4β3^S408A,S409Aδ receptors; experiment: Quantification of spontaneous activity (Ispont) in HEK cells, whole-cell patch clamp; format: cell-based, mouse; settings: for Ispont during staurosporine application: α4β3S408A,S409Aδ, 200 nM staurosporine, individual cells
T2 construct: expressed in transfected cells; host or cells: HEK 293
Text: as §4, §2, §5

[6] = system: T3, α4β3^S408D,S409Dδ receptors; experiment: as above; format: cell-based, mouse; settings: for Ispont during staurosporine application: α4β3S408D,S409Dδ, 200 nM staurosporine, individual cells
T3 construct: expressed in transfected cells; host or cells: HEK 293
Text: as §4, §2, §5

α4β3 receptors = system: T4, α4β3 receptors; experiment: Agonist-evoked whole-cell currents and their modulation by Zn2+ / DS2 in HEK cells; format: cell-based, mouse; set-up: GABA current, Supp. Fig. 2b / GABA + DS2 current, Supp. Fig. 2b / GABA current, Supp. Fig. 2a: unit not given here; settings: GABA with DS2, individual cells
T4 construct: expressed in transfected cells; host or cells: HEK 293
Text: as §4, §2, §5

α4β3δ receptors [7] = biological target: T5, α4β3δ receptors (UniProt P18506+P63080+Q9D6F4); experiment: as above; format: cell-based, mouse
T5 construct: expressed in transfected cells; host or cells: HEK 293
Text: as §4, §2, §5

α4β3δ receptors [8] = biological target: T5, α4β3δ receptors; format: cell-based, mouse; set-up: spontaneous activity, Supp. Fig. 3e: unit not given here; settings: for Ispont in the presence of modulator: α4β3δ, PS 10 µM (Fig. 6c)
Text: as §4, §2, §5, §6

α4^Q246Mβ3δ receptors = system: T6, α4^Q246Mβ3δ receptors; experiment: Quantification of spontaneous activity (Ispont) in HEK cells, whole-cell patch clamp; format: cell-based, mouse; settings: α4Q246Mβ3δ, PS 10 µM (Fig. 6c)
T6 construct: expressed in transfected cells; host or cells: HEK 293
Text: as §4, §2, §5, §6

α4β3^S409Aδ receptors = system: T7, α4β3^S409Aδ receptors; experiment: as above; format: cell-based, mouse; settings: α4β3S409Aδ, PS 10 µM (Fig. 6c)
T7 construct: expressed in transfected cells; host or cells: HEK 293
Text: as §4, §2, §5, §6

[9] = PTX added after Gabazine, individual cells
[10] = eGFP- and β3-expressing neurons, concanamycin A 0.5 μM
[11] = Gabazine alone, individual cells

T5 sequence (Q9D6F4 36-552): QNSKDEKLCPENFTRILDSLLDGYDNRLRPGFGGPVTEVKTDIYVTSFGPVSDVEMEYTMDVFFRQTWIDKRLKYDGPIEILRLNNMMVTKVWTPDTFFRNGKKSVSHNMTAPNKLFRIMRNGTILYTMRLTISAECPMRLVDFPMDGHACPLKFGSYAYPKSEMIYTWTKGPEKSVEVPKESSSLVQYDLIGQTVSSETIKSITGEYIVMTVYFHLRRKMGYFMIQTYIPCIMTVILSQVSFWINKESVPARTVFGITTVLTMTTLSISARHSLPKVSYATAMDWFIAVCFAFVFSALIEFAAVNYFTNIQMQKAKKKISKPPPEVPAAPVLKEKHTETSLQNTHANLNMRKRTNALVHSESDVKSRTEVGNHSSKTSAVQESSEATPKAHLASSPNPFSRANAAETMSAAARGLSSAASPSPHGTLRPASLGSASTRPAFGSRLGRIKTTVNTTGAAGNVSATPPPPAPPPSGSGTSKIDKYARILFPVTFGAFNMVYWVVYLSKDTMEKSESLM
T5 sequence (P63080 26-473): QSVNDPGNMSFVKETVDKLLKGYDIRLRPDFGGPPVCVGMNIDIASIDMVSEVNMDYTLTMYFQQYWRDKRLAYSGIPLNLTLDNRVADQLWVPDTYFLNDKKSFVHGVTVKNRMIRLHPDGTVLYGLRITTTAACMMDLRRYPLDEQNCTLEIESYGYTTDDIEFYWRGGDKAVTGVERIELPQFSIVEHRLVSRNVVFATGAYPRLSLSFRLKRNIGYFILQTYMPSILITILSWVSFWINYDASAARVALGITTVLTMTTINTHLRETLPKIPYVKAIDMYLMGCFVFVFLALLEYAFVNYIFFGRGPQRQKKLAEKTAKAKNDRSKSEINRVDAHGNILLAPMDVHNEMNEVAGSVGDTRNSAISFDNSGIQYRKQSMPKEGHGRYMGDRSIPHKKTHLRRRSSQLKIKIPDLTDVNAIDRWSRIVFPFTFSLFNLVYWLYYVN
T5 sequence (P18506 25-449): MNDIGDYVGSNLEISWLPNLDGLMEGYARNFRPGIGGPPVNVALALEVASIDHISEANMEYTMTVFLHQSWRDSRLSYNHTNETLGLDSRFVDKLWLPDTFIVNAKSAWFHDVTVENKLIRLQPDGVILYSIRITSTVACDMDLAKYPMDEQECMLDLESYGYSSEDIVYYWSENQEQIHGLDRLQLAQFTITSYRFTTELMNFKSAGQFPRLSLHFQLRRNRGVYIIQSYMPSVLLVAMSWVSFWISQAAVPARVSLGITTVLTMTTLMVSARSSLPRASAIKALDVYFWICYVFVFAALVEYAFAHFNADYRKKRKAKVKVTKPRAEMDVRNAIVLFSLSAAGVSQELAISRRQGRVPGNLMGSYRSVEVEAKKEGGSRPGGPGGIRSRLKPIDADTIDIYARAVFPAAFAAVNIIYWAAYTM
Experimental for β3 homomeric receptors: HEK 293 cells were maintained in Dulbecco’s modified Eagle’s medium supplemented with 10% v/v heat-inactivated fetal calf serum, 100 units/ml penicillin-G and 100 µg/ml streptomycin and incubated at 37 °C in humidified 95% air/5% CO2. […] Cells were maintained within a passage range of P12–35. Dissociated HEK cells were plated onto 22 mm glass coverslips (VWR) coated in poly-L-lysine (Sigma). Cells were transfected >1 h later using a calcium phosphate protocol whereby a transfection solution was prepared consisting of 20 μl of 340 mM CaCl2, 24 μl of 2× HBS (50 mM HEPES, 280 mM NaCl, 2.8 mM Na2HPO4) and 4 μg cDNA per coverslip. […] Cells were recorded from 24–48 h later.
For all electrophysiological experiments, cells were visualised using a Nikon Eclipse E600FN microscope. Whole-cell currents were recorded using an Axopatch 200B amplifier and digitised using a Digidata 1322 A (Axon Instruments). […]
HEK cells were recorded from using borosilicate glass electrodes with resistances ~3–5 MΩ when filled with an internal solution containing (mM): 1 MgCl2, 140 KCl, 11 EGTA, 10 HEPES, 1 CaCl2, 2 K2ATP, pH 7.2. Osmolarity was 300 ± 20 mOsm/L, measured using a vapour pressure osmometer (Model 5520, Wescor Inc). […]

Compound: picrotoxin [PTX]
- Effect on spontaneous single-channel currents (α4β3δ GABAARs): blocked
- Change in holding current ([1]; PTX 100 μM after gabazine): large reduction in holding current
- tonic current change with +PTX, Fig. 10a [1, 9]: 0.1792 and 0.4018 and 0.1492 and 0.2163 and 0.07528 and 0.1359 and 0.2209 and 0.2596 and 0.5835
- tonic current change with +PTX, Fig. 10b [2, 9]: 0.2529 and 0.032 and 0.04 and 0.1019 and 0.1492 and 0.1027 and 0.03878 and 0.06433 and 0.1595 and 0.03636
- Effect on residual tonic current ([2]; dLGN thalamic relay neurons, PTX 100 μM after gabazine): blocked

Compound: CN(C)CCCn1cc(C2=C(c3c[nH]c4ccccc34)C(=O)NC2=O)c2ccccc21 [bisindolylmaleimide-I]
- Ispont with PKC inhibitor in the patch electrode solution (α4β3δ receptors [3]; α4β3δ, Bis-I 200 nM internal, 2 min dialysis (Fig. 5e)): significantly reduced

Compound: C/C=C/[C@H]1O[C@@](O)([C@@H](C)[C@H](O)[C@H](C)[C@H]2OC(=O)/C(OC)=C/C(C)=C/[C@@H](C)[C@@H](O)[C@@H](CC)[C@@H](O)[C@H](C)C/C(C)=C/C=C/[C@@H]2OC)C[C@@H](O[C@H]2C[C@@H](O)[C@H](OC(N)=O)[C@@H](C)O2)[C@@H]1C [concanamycin A]
- spontaneous/tonic current, Supp. Fig. 4e ([4]; eGFP neurons): 1.043 and 0.1205 and 0.1429 and 0.1839 and 0.303 and 0.1613 and 0.3626 and 0.3579
- Effect on IPSCs [4, 10]: abolished
- Effect on PTX-sensitive spontaneous currents [4, 10]: without affecting
- spontaneous/tonic current, Supp. Fig. 4e ([4]; β3 neurons): 1.595 and 1.13 and 1.667 and 1.221 and 1.725 and 1.692

Compound: CN[C@@H]1C[C@H]2O[C@@](C)([C@@H]1OC)n1c3ccccc3c3c4c(c5c6ccccc6n2c5c31)C(=O)NC4 [staurosporine]
- Ispont during staurosporine application (α4β3δ receptors [3]; α4β3δ, time 1 min, individual cells): decreased significantly and 13.2% and 6.4% and 6.3%
- Ispont during staurosporine application (α4β3δ receptors [3]; α4β3δ, time 10 min, individual cells): 9.3% and 12.3% and 3.2% and 4.6%
- Ispont during staurosporine application (α4β3δ receptors [3]; α4β3δ, time 20 min, individual cells): 7.5% and 8% and 2.3% and 3.8%
- Effect on Ispont over 20 min compared to control ([5]; phospho-null α4β3^S408A,S409Aδ, staurosporine 200 nM): no effect
- Ispont during staurosporine application ([5]; time 1 min): 7.3% and 8.9% and 6.5% and 29.4%
- Ispont during staurosporine application ([5]; time 10 min): 5.4% and 6.9% and 9.5% and 5.6% and 26.6%
- Ispont during staurosporine application ([5]; time 20 min): 5.7% and 5.8% and 7.2% and 5%
- Effect on Ispont over 20 min compared to control ([6]; phosphomimetic α4β3^S408D,S409Dδ, staurosporine 200 nM): no effect
- Ispont during staurosporine application ([6]; time 1 min): 12.5% and 12.6%
- Ispont during staurosporine application ([6]; time 10 min): 11.9% and 9.4% and 7.9%
- Ispont during staurosporine application ([6]; time 20 min): 8.8% and 8.7% and 7.1%

Compound: PKA inhibitor peptide 14–22: selective PKA inhibitor peptide (GRTGRRNAI; UniProt P61925 15-23, looked up, fragment)
- Ispont with PKA inhibitor in the patch electrode solution (α4β3δ receptors [3]; α4β3δ, PKI 1 μM internal, 2 min dialysis (Fig. 5d)): significantly reduced

Compound: O=C(Nc1c(-c2cccs2)nc2ccccn12)c1ccc(Cl)cc1 [DS2]
- GABA + DS2 current, Supp. Fig. 2b (α4β3 receptors): 0.04 and 0.14 and 0.11 and 0.09 and 0.26
- Effect on 0.3 μM GABA responses (α4β3δ receptors [7]; DS2 5 μM): potentiated
- GABA + DS2 current, Supp. Fig. 2b (α4β3δ receptors [7]; GABA with DS2, individual cells): 1.82 and 1.25 and 0.43 and 1.45 and 3.44

Compound: COc1ccc(-c2ccc(=N)n(CCCC(=O)O)n2)cc1 [gabazine]
- Effect on spontaneous holding current (α4β3δ receptors [8]; cells expressing α4, β3 and δ, gabazine 1 µM): behaved as an inverse agonist
- Effect on holding current ([4]; eGFP-transfected neurons): small agonist effect
- Effect on holding current ([4]; β3-transfected neurons): partial antagonism
- Change in holding current ([1]; gabazine 20 µM): small increments in holding current
- tonic current change with Gabazine, Fig. 10a [1, 11]: -0.04645 and -0.07728 and -0.0199 and 0.08319 and 0 and -0.01133 and -0.01699 and -0.02885 and -0.01144
- tonic current change with Gabazine, Fig. 10b [2, 11]: 0.2002 and 0.032 and 0.025 and 0.02996 and 0.07463 and 0.08562 and 0.04525 and 0.03574 and -0.03067 and 0.01818
- Effect on tonic current ([2]; dLGN thalamic relay neurons, gabazine 20 µM): part-inhibited
- Effect on spontaneous holding current (β3 homomeric receptors; β3 alone, gabazine 1 µM): but not with β3 alone

Compound: CCCC(C)C1(CC)C(=O)NC(=O)NC1=O (stereo not drawn) [pentobarbital]
- Whole-cell current evoked by pentobarbital (β3 homomeric receptors; β3, 100 µM pentobarbital, n = 11): 220 ± 94 pA

Compound: CN([C@@H](Cc1ccc(OS(=O)(=O)c2cccc3cnccc23)cc1)C(=O)N1CCN(c2ccccc2)CC1)S(=O)(=O)c1cccc2cnccc12 [KN-62]
- spontaneous activity, Supp. Fig. 3e (α4β3δ receptors [3]; KN-62 treated (vs control), individual cells): 9.722 and 13.6922 and 18.602 and 3.467 and 9.093 and 9.783 and 14.5969 and 3.449 and 5.659
- Effect on Ispont of internally applied CaMKII inhibitor (α4β3δ receptors [3]; α4β3δ, KN-62 3 µM internal): no effect

Compound: pregnenolone sulphate [Pregnenolone sulfate]
- Ispont in the presence of modulator (α4β3δ receptors [8]): reduced
- Ispont in the presence of modulator (α4β3δ receptors [8]; listed as PS): 5.825% and 4.865% and 6.452% and 3.37% and 4.547% and 9.251% and 6.244% and 4.926%
- Ispont in the presence of modulator (α4^Q246Mβ3δ receptors): reduced
- Ispont in the presence of modulator (α4^Q246Mβ3δ receptors; listed as PS): 3.665% and 9.322% and 7.162% and 6.1828% and 3.237% and 4.8719% and 4.011%
- Ispont in the presence of modulator (α4β3^S409Aδ receptors): reduced
- Ispont in the presence of modulator (α4β3^S409Aδ receptors; listed as PS): 0.7651% and 0.3749% and 0.1269% and 0.9165% and 2.143% and 0.1295% and 1.652%
